The format of the data set is physicochemical. To be noted: for Weight %: solubility in THF, 25° C., calculated with extinction coefficient of pentacene. The procedure:
The solubility of several alkyl substituted pentacenes in tetrahydrofuran (THF) was compared with that of pentacene. Samples were prepared by adding excess alkyl substituted pentacene compounder pentacene compound to newly opened THF and sonicating for 20-30 seconds to facilitate dissolution. All handling of the solutions and solvent was done in a nitrogen-purged environment. Solutions were transferred to a 1 cm cuvette with a disposable pipette. The cuvette was then placed in a spectrophotometer for 5 minutes for temperature equilibration (25° C.). Absorbance measurements were made using an Hewlett Packard 8453 photodiode array spectrophotometer over a range of wavelengths from 200 to 1100 nm. THF was used as a reference blank. All of the spectrographs were corrected for baseline differences, which possibly resulted from excess compound in suspension. In calculating the concentration and weight % values, the extinction coefficient of pentacene that is, 10^3.76 at 577 nm was used for all substituted pentacenes.

Take `Cc1ccc2cc3cc4cc5cc(C)ccc5cc4cc3cc2c1` [2,9-dimethylpentacene, 2,9-Dimethylpentacene]: the “Absorbance at 577 nm” value came to 0.021, the “Concentration” value amounted to 3.59 µM, the “Relative Absorbance” value was determined as 0.142 and the Weight % was 1.64 × 10^−4 Weight %.
Turning to `CCCCCCc1ccc2cc3cc4cc5cc(CCCCCC)ccc5cc4cc3cc2c1` [2,9-dihexylpentacene, 2,9-Dihexylpentacene], the “Absorbance at 577 nm” value was 0.987; the “Concentration” value amounted to 172 µM; the “Relative Absorbance” value was 6.752; the “Solubility in THF compared with pentacene, 2,9-dimethylpentacene, 2,10-dimethylpentacene, 2,9-didodecylpentacene” value is on record as “significantly more soluble”. For the same compound, the Weight % is listed as 8.62 × 10^−3 Weight %.
For `CC(CCc1ccc2cc3cc4cc5cc(CCC(C)CC(C)(C)C)ccc5cc4cc3cc2c1)CC(C)(C)C` (centres unmarked) [2,9-di(3,5,5-trimethylhexyl)pentacene, 2,9-Di(3,5,5-trimethylhexyl)pentacene], the “Concentration” value stood at 3350 µM; the “Solubility in THF compared with pentacene, 2,9-dimethylpentacene, 2,10-dimethylpentacene, 2,9-didodecylpentacene” value is given as “significantly more soluble”; the Weight % is 2.00 × 10^−1 Weight %.
For `CCCCCCCCCCCCc1ccc2cc3cc4cc5cc(CCCCCCCCCCCC)ccc5cc4cc3cc2c1` [2,9-didodecylpentacene, 2,9-Didodecylpentacene], the “Absorbance at 577 nm” value came to 0.061, the “Concentration” value is 10.7 µM, the “Relative Absorbance” value is 0.420 and the Weight % is given as 7.38 × 10^−4 Weight %.
Consider `c1ccc2cc3cc4cc5ccccc5cc4cc3cc2c1` [pentacene], for which the “Absorbance at 577 nm” value came out at 0.146, the “Concentration” value amounted to 25.4 µM, the “Relative Absorbance” value came to 1.000 and the Weight % is 7.95 × 10^−4 Weight %.
Turning to `CCCCCCCCCc1ccc2cc3cc4cc5cc(CCCCCCCCC)ccc5cc4cc3cc2c1` [2,9-dinonylpentacene, 2,9-Dinonylpentacene], the “Absorbance at 577 nm” value is 1.398; the “Concentration” value turned out to be 243 µM; the “Relative Absorbance” value came out at 9.562; the “Solubility in THF compared with pentacene, 2,9-dimethylpentacene, 2,10-dimethylpentacene, 2,9-didodecylpentacene” value is given as “significantly more soluble”. Moreover, the Weight % was 1.45 × 10^−2 Weight %.
Turning to `Cc1ccc2cc3cc4cc5ccc(C)cc5cc4cc3cc2c1` [2,10-dimethylpentacene, 2,10-Dimethylpentacene], the “Absorbance at 577 nm” value came to 0.035, the “Concentration” value came to 6.06 µM, the “Relative Absorbance” value was found to be 0.239 and the Weight % is reported as 2.77 × 10^−4 Weight %.
